Like-named read-outs stand apart in the source and are kept apart here.
Experiments:
other OCT subtypes = conditions: cited from earlier work
[1] = intravenous administration; cited from earlier work
OCT3/uptake2 = molecular target: T1, OCT3/uptake2 (Homo sapiens, UniProt O75751); conditions: cited from earlier work
T1 sequence (O75751 1-556): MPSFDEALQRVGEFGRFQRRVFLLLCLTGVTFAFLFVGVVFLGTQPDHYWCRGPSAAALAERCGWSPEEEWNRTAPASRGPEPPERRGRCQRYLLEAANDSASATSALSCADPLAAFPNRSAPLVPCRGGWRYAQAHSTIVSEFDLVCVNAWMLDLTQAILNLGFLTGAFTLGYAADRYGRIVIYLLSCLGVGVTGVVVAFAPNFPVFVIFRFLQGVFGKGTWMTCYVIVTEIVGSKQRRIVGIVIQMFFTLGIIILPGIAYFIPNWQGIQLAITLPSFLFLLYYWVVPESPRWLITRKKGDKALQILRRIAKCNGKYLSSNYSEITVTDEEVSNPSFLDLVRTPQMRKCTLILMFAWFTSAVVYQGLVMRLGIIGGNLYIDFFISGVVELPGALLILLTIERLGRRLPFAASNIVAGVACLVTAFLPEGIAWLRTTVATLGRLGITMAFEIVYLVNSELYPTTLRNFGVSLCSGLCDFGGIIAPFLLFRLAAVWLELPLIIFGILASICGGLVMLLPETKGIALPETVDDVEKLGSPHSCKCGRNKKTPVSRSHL

Male ddY mice [2] = conditions: anti-depressant administration: chlordiazepoxide 100 mg/kg, imipramine 16 mg/kg; Behav Brain Res. 73, 43-46, 1996; cited from earlier work
Male ddY mice [3] = assay: Forced swimming test (depression model); assay type: in vivo
Description: Male ddY mice were used for the experiments. Mice raised for three or more days after purchase were made to swim for 300 seconds in a beaker (15 cm in diameter, 20 cm in height). Immobility time was measured, and the mice were divided into groups such that the average immobility time was approximately the same for each group. The day after swimming an antisense (OCT3 antisense) constructed from an OCT3 gene sequence was continuously infused into the cerebral ventricle, using an osmotic pump according to the reported literature (J. Chem. Neuroanat. 2000. 20: 375-87). Further, a group infused with Ringer's solution, which is an antisense solvent (the solvent group) and a group infused with a cDNA sequence with the same bases as the antisense but in a random sequence without homology to known genes (the scrambled OCT3 antisense group) were also prepared. One week after infusion the mice were returned to the beakers and made to swim for 300 seconds, and immobility time was measured. Imipramine anti-depressant was intraperitoneally administered 30 minutes before the beginning of the test.

[4] = molecular target: T2, kidney derived Caki-1 cells, which contain OCT3 (Homo sapiens, UniProt O75751); conditions: cited from earlier work
T2 construct: kidney derived Caki-1 cells, which contain OCT3; endogenous in cells; host or cells: Caki-1
T2 sequence (O75751 1-556): T1 sequence (O75751 1-556)

[5] = system: cultured porcine tubular cells; conditions: cited from earlier work

For CC(C)N1C=CC(=Cc2ccc3ccccc3[n+]2C(C)C)c2ccccc21 [disprocynium24, 1,1′-diisopropyl-2,4′-cyanine], the “inhibitory activity towards other OCT subtypes” value (other OCT subtypes) is given as “potent inhibitory activity”, the “excretion of monoamine into urine” value [1] is given as “strongly suppresses” and the “inhibition of OCT3/uptake2” value (OCT3/uptake2) is given as “potent inhibitor”. The “inhibition of OCT3/uptake2” value (OCT3/uptake2; listed as disprocynium 24) was “potent OCT3 inhibitors”.

In the case of CN(C)CCCN1c2ccccc2CCc2ccccc21 [imipramine], the condition of immobility (Male ddY mice [2]) is given as “shortened” and the “immobility time (average value)” value (Male ddY mice [3]; imipramine 4 mg/kg intraperitoneally 30 minutes before test, 300 seconds of swimming, FIG. 1B) is given as 245 ± 15 s.

For CCN1C(=Cc2cc(C)nc(-c3ccccc3)[n+]2C)C=Cc2ccccc21.[Cl-] [cyanine 863], the “inhibitory activity towards other OCT subtypes” value (other OCT subtypes) is listed as “potent inhibitory activity” and the “inhibition of OCT3/uptake2” value (OCT3/uptake2) is listed as “potent OCT3 inhibitors”.

For C[C@]12C[C@H](O)[C@H]3[C@@H](CCC4=CC(=O)CC[C@@]43C)[C@@H]1CC[C@@H]2C(=O)CO [Corticosterone, corticosterone], the “uptake of MPP+” value [4] is listed as “suppresses”.

In the case of CC(=O)[C@H]1CC[C@H]2[C@@H]3CCC4=CC(=O)CC[C@]4(C)[C@H]3CC[C@]12C [progesterone], the noradrenaline uptake [5] is given as “significantly reduce”.

For CCN1/C(=C/c2ccc3ccccc3[n+]2CC)C=Cc2ccccc21.[I-] [decynium 22], the “inhibitory activity towards other OCT subtypes” value (other OCT subtypes) is listed as “potent inhibitory activity” and the “inhibition of OCT3/uptake2” value (OCT3/uptake2) is listed as “potent OCT3 inhibitors”.

In the case of COc1cc(C(O)CN)ccc1O (stereo not shown) [normetanephrine], the “immobility time (average value)” value (Male ddY mice [3]; normetanephrine 2.5 μg/0.25 μl/hr continuous infusion to cerebral ventricle, one week, FIG. 2) was 108 ± 29 s.
